≈ marks a conversion by molar mass, not a printed value. Bounds are passed on as bounds.

The test system of series [1] is PC-3. Kind of series: Antiproliferative activity against human PC-3 assessed as cell growth inhibition incubated for 48 hrs by Cell Counting Kit-8 assay. The class given is functional, cell-based. As to conditions: PC-3, 48 h.
The nature of series [2]: Antiproliferative activity against human U-87 MG assessed as cell growth inhibition incubated for 48 hrs by Cell Counting Kit-8 assay. The class given is functional, cell-based, U-87MG ATCC. In general terms: Tetrazolium assays rely on reduction of a dye to a coloured formazan, in cell work by metabolically active cells.
Series [3] relates to HepG2. Kind of series: Antiproliferative activity against human HepG2 assessed as cell growth inhibition incubated for 48 hrs by Cell Counting Kit-8 assay. The class given is functional, cell-based. To be noted: HepG2, 48 h.
In series [4] the test system is HL-60. Kind of series: Induction of apoptosis in human HL-60 cells assessed as effective dose. As to conditions: read-out: ED50 (the source's name). The format is functional.
The test system of series [5] is Pyricularia oryzae. Kind of series: Antimicrobial activity against Pyricularia oryzae by agar dilution method. The format is functional. For orientation: In agar dilution the substance is mixed into plates at graded concentrations.
In series [6] the test system is HL-60. Kind of series: Antitumor activity against human HL60 cells assessed as cell growth incubated for 1 day by MTT assay. The format is functional, cell-based. To be noted: HL-60, 24 h.
Series [7] can be described thus: Cytotoxicity against human WI-38 cells assessed as cell growth incubated for 1 day by MTT assay. The class given is toxicity, cell-based.
Series [8] can be described thus: Inhibition of bovine brain FTase. On the set-up: species or system Bos taurus.
Series [9] has as its system HepG2. Kind of series: Cytotoxicity against human HepG2 cells incubated for 48 hrs by CCK-8 assay. The class given is functional, cell-based. As to conditions: HepG2, 48 h.
For series [10], the system named is PC-3. Put plainly: Antiproliferative activity against human PC3 cells assessed as cell viability incubated for 48 hrs by Cell Counting Kit-8 assay. The format is functional, cell-based. As to conditions: PC-3, 48 h.
Series [11] can be described thus: Antiproliferative activity against human U87 cells overexpressing miR-9 assessed as cell viability incubated for 48 hrs by Cell Counting Kit-8 assay. The format is functional, cell-based, U-87MG ATCC. As to conditions: U-87 MG.
The subject of series [12] is PC-3. Put plainly: Cytotoxicity against human PC-3 cells incubated for 48 hrs by CCK-8 assay. The class given is functional, cell-based. To be noted: PC-3, 48 h.
In series [13] the test system is HepG2. Kind of series: Antiproliferative activity against human HepG2 cells assessed as cell viability incubated for 48 hrs by Cell Counting Kit-8 assay. As to conditions: HepG2, 48 h. The format is functional, cell-based.
In series [14] the test system is A549. Kind of series: Cytotoxicity against human A549 cells incubated for 72 hrs by MTT assay. As to conditions: A549, 72 h. The class given is functional, cell-based.
Series [15] concerns K562. Put plainly: Cytotoxicity against human K562 cells incubated for 24 hrs by CCK-8 assay. The class given is functional, cell-based. To be noted: K562, 24 h.
The test system of series [16] is MCF7. Put plainly: Antitumor activity against human MCF7 cells incubated for 72 hrs by MTT assay. As to conditions: MCF7, 72 h. The class given is functional, cell-based.
The subject of series [17] is K562. Put plainly: Antitumor activity against human K562 cells incubated for 24 hrs by CCK-8 assay. To be noted: K562, 24 h. The format is functional, cell-based.
Series [18] concerns A549. Put plainly: Antitumor activity against human A549 cells incubated for 72 hrs by MTT assay. The class given is functional, cell-based. To be noted: A549, 72 h.
Series [19] has as its system HeLa. Kind of series: Antitumor activity against human HeLa cells incubated for 72 hrs by hemocytometer. The format is functional, cell-based.
The nature of series [20]: Cytotoxicity against human HaCaT cells. The format is toxicity, cell-based.
Series [21] has as its system PANC-1. Kind of series: Antitumor activity against human PANC-1. The class given is functional, cell-based. To be noted: pooled result: one value given for 3 cell lines, strains, targets or settings.
Series [22] deals with BV-2. Kind of series: Cytotoxicity against LPS stimulated mouse BV-2 cells by MTS assay. The format is functional, cell-based.
Series [23] deals with PLC. Kind of series: Antitumor activity against human PLC cells incubated for 72 hrs by hemocytometer. The class given is functional, cell-based.
Series [24] in a line: Cytotoxicity against mouse C2C12 cells incubated for 48 to 72 hrs by MTS assay. The class given is toxicity, cell-based.
A short description of series [25]: Cytotoxicity against human HAF cells incubated for 48 to 72 hrs by MTS assay. The format is toxicity, cell-based, Fibroblast. To be noted: HAF cells (fibroblasts).
Series [26] is described as follows: Inhibition of NO production in LPS stimulated mouse BV-2 cells measured after 24 hrs. The class given is functional, cell-based. To be noted: BV-2, 24 h.
A short description of series [27]: Cytotoxicity against mouse C2C12 cells. The format is toxicity, cell-based.
A short description of series [28]: Cytotoxicity against human HaCaT cells incubated for 48 to 72 hrs by MTS assay. The class given is toxicity, cell-based.
Series [29] can be described thus: Cytotoxicity against human HAF cells. The format is toxicity, cell-based, Fibroblast. To be noted: HAF cells (fibroblasts).

As for `CO[C@@H]1CC(=O)Nc2c(O)c3cc4c2[C@H]1[C@@H](/C=C/C=C/C[C@H](OC(=O)[C@@H](C)NC(=O)C1CCCCC1)[C@H](C)[C@@H](O)/C(C)=C\CC3)O4`, the half-maximal inhibitory concentration (IC50) was 2210 nM in [1], 7010 nM in series [2] and 610 nM in series [3].

Turning to `CO[C@H]1/C=C/C=C/C=C/C[C@H](OC(=O)C2(NC(=O)C3=CCCCC3)CC2)[C@H](C)[C@@H](O)/C(C)=C\CCc2cc(O)cc(c2O)NC(=O)C1`, the EC50 in series [4] was determined as 7700 nM. Further, in series [5], inhibition of growth (MIC) required 12.5 µg/mL (≈ 19.3 µM). For the same compound, the IC50 in series [6] was found to be 7.7 nM. In addition, the IC50 at 1 day in [7] worked out at 7.7 nM.

In turn, `CO[C@H]1/C=C/C=C/C=C/C[C@H](OC(=O)[C@@H](C)NC(=O)C2=CCCCC2)[C@H](C)[C@@H](O)/C(C)=C\CCc2cc(O)cc(c2O)NC(=O)C1` registered an IC50 in series [8] of 1.2 µg/mL (≈ 1.88 µM).

For `CO[C@H]1/C=C/C=C/C=C/C[C@H](OC(=O)[C@@H](C)NC(=O)C2CCCCC2)[C@H](C)[C@@H](O[C@@H]2O[C@H](CO)[C@@H](O)[C@H](O)[C@H]2O)/C(C)=C\CCc2cc(O)cc(c2O)NC(=O)C1`, the IC50 is 2200 nM in [9]; ≥ 2020 nM in [10]; ≥ 2020 nM in series [11]; 4380 nM in [12]; ≥ 2020 nM in series [13].

In the case of `CO[C@H]1/C=C/C=C/C=C/C[C@H](OC(=O)C2(NC(=O)C3CCCCC3)CC2)[C@H](C)[C@@H](O)/C(C)=C\CCc2cc(O)cc(c2O)NC(=O)C1`, in series [4], the EC50 worked out at 7700 nM. Besides, the IC50 in series [6] is 7.7 nM. Moreover, the IC50 at 1 day in series [7] was determined as 7.7 nM.

The compound `C/C=C(\C)C(=O)N[C@H](C)C(=O)O[C@H]1C/C=C/C=C/C=C/[C@H](OC)CC(=O)Nc2cc(O)cc(c2O)CC/C=C(/C)[C@H](O)[C@H]1C` had an IC50 in [8] of 0.6 µg/mL (≈ 0.982 µM).

For the compound `CO[C@H]1/C=C/C=C/C=C/C[C@H](OC(=O)[C@@H](C)NC(C)=O)[C@H](C)[C@@H](O)/C(C)=C\CCc2cc(O)cc(c2)NC(=O)C1`, the IC50 in series [14] is 15000 nM; in [15], 23000 nM; in [16], > 10000 nM; in series [17] it was > 10000 nM; in [18] it was > 10000 nM.

Take `CO[C@H]1/C=C/C=C/C=C/C[C@H](OC(=O)[C@@H](C)NC(=O)C2CCCCC2)[C@H](C)[C@@H](O)/C(C)=C\CCc2cc(O)cc(c2)NC(=O)C1` [TRIENOMYCIN A]: the IC50 in [19] is 8 nM; in series [20], 8 nM; in series [21], 8 nM; in [22] it was 8 nM; in series [23], 8 nM; in series [24], > 10000 nM. Further, the IC50 in series [25] is > 10000 nM; in series [27], 8 nM; in [28] it was > 10000 nM; in [29], 8 nM. The compound further gave an EC50 in series [26] of 25.4 nM.

By IC50 is commonly meant the concentration needed to halve the response being measured. For orientation: MIC means the smallest concentration in the dilution series that meets the test's criterion for growth inhibition. Low readings indicate inhibition by little substance, high ones a need for much substance.

Source of the values: ChEMBL document CHEMBL5247589, “Natural occurrence, bioactivity, and biosynthesis of triene-ansamycins” (Eur J Med Chem, 2022).
